Measurements published in PubChem BioAssay (NCI).
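These data come from cells grown in 96-well plates and exposed to compound for 48 hours at five concentrations. TGI denotes the concentration required for complete inhibition of growth.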

Key:
Test in all cases: DTP human tumour cell line panel, 48 h
[1] = test system: SNB-75 CNS
[2] = test system: SN12C renal
[3] = test system: HCC-2998 colon
[4] = test system: NCI-H460 lung
[5] = test system: SK-MEL-5 melanoma
[6] = test system: M14 melanoma
[7] = test system: UO-31 renal
[8] = test system: HCT-15 colon
[9] = test system: HL-60(TB) leukemia
[10] = test system: UACC-257 melanoma
[11] = test system: SF-268 CNS
[12] = test system: RXF-631 renal
[13] = test system: CCRF-CEM leukemia
[14] = test system: RXF 393 renal
[15] = test system: COLO 205 colon
[16] = test system: KM20L2 colon
[17] = test system: XF 498 CNS
[18] = test system: OVCAR-5 ovarian
[19] = test system: MALME-3M melanoma
[20] = test system: SK-MEL-2 melanoma
[21] = test system: OVCAR-8 ovarian
[22] = test system: M19-MEL melanoma
[23] = test system: A498 renal
[24] = test system: SK-MEL-28 melanoma
[25] = test system: LOX IMVI melanoma
[26] = test system: RPMI-8226 leukemia
[27] = test system: 786-0 renal
[28] = test system: HT29 colon
[29] = test system: IGROV1 ovarian
[30] = test system: UACC-62 melanoma
[31] = test system: K-562 leukemia
[32] = test system: SNB-19 CNS
[33] = test system: HOP-92 NSCLC
[34] = test system: TK-10 renal
[35] = test system: HCT-116 colon
[36] = test system: SK-OV-3 ovarian
[37] = test system: HOP-18 NSCLC
[38] = test system: SR leukemia
[39] = test system: DMS 273 small cell lung
[40] = test system: OVCAR-4 ovarian
[41] = test system: A549 NSCLC
[42] = test system: U251 CNS
[43] = test system: KM12 colon
[44] = test system: SF-295 CNS
[45] = test system: DMS 114 small cell lung
[46] = test system: HOP-62 NSCLC
[47] = test system: SW-620 colon
[48] = test system: LXFL 529 NSCLC
[49] = test system: NCI-H23 lung
[50] = test system: MOLT-4 leukemia
[51] = test system: DLD-1 colon
[52] = test system: EKVX NSCLC
[53] = test system: OVCAR-3 ovarian
[54] = test system: SF-539 CNS
[55] = test system: SNB-78 CNS
[56] = test system: ACHN renal
[57] = test system: CAKI-1 renal
[58] = test system: NCI-H226 lung
[59] = test system: NCI-H522 lung

N#CC1(Cc2ccccc2)CCCCN1C(=O)c1ccccc1 (centres undefined)
TGI [1]: > 100 µM | TGI [2]: > 100 µM | TGI [3]: > 100 µM | TGI [4]: > 100 µM | TGI [5]: > 100 µM | TGI [6]: > 100 µM | TGI [7]: > 100 µM | TGI [8]: > 100 µM | TGI [9]: > 100 µM | TGI [10]: > 100 µM | TGI [11]: > 100 µM | TGI [12]: > 100 µM | TGI [13]: > 100 µM | TGI [14]: > 100 µM | TGI [15]: > 100 µM | TGI [16]: > 100 µM | TGI [17]: > 100 µM | TGI [18]: > 100 µM | TGI [19]: > 100 µM | TGI [20]: 9.11 µM | TGI [21]: > 100 µM | TGI [22]: > 100 µM | TGI [23]: > 100 µM | TGI [24]: > 100 µM | TGI [25]: > 100 µM | TGI [26]: > 100 µM | TGI [27]: > 100 µM | TGI [28]: > 100 µM | TGI [29]: > 100 µM | TGI [30]: > 100 µM | TGI [31]: > 100 µM | TGI [32]: > 100 µM | TGI [33]: > 100 µM | TGI [34]: > 100 µM | TGI [35]: > 100 µM | TGI [36]: > 100 µM | TGI [37]: > 100 µM | TGI [38]: > 100 µM | TGI [39]: > 100 µM | TGI [40]: > 100 µM | TGI [41]: > 100 µM | TGI [42]: > 100 µM | TGI [43]: > 100 µM | TGI [44]: > 100 µM | TGI [45]: > 100 µM | TGI [46]: > 100 µM | TGI [47]: > 100 µM | TGI [48]: > 100 µM | TGI [49]: > 100 µM | TGI [50]: > 100 µM | TGI [51]: > 100 µM | TGI [52]: > 100 µM | TGI [53]: > 100 µM | TGI [54]: > 100 µM | TGI [55]: > 100 µM | TGI [56]: > 100 µM

C[n+]1[se]c2ccccc2c1Cl
TGI [57]: > 56.2 µM | TGI [1]: 45.8 µM | TGI [2]: 23.7 µM | TGI [3]: > 81.9 µM | TGI [4]: > 100 µM | TGI [5]: 31.1 µM | TGI [6]: 27.8 µM | TGI [7]: > 63.5 µM | TGI [8]: > 67.3 µM | TGI [9]: 19.6 µM | TGI [10]: > 46.9 µM | TGI [11]: 52.4 µM | TGI [12]: > 67.2 µM | TGI [13]: 21.5 µM | TGI [14]: 50.4 µM | TGI [15]: > 59.8 µM | TGI [16]: > 75.7 µM | TGI [17]: > 54.9 µM | TGI [18]: > 79.9 µM | TGI [19]: > 56.9 µM | TGI [20]: 28.1 µM | TGI [21]: > 84.7 µM | TGI [22]: 27.3 µM | TGI [23]: > 100 µM | TGI [24]: > 54.7 µM | TGI [25]: 39.7 µM | TGI [26]: > 67 µM | TGI [27]: > 59.2 µM | TGI [28]: > 76.3 µM | TGI [29]: > 77.5 µM | TGI [30]: 33.2 µM | TGI [31]: > 70.7 µM | TGI [32]: > 100 µM | TGI [33]: 20.2 µM | TGI [34]: > 63 µM | TGI [35]: 31 µM | TGI [36]: > 100 µM | TGI [37]: 52.9 µM | TGI [39]: 41.5 µM | TGI [40]: > 60 µM | TGI [41]: > 94 µM | TGI [42]: > 74.4 µM | TGI [43]: > 56.7 µM | TGI [44]: 50.9 µM | TGI [45]: > 70 µM | TGI [46]: > 58.8 µM | TGI [58]: > 71.1 µM | TGI [47]: 42.6 µM | TGI [48]: > 100 µM | TGI [49]: 45.8 µM | TGI [50]: > 63.6 µM | TGI [51]: > 59.7 µM | TGI [52]: 52.1 µM | TGI [53]: > 71.9 µM | TGI [54]: 37.1 µM | TGI [55]: > 72.8 µM | TGI [59]: 42.7 µM | TGI [56]: > 70.7 µM
